Among the targets are Myosin-14 (Homo sapiens, UniProt Q7Z406); Midasin (Homo sapiens, UniProt Q9NU22); Activated CDC42 kinase 1 (Homo sapiens, UniProt Q07912); Ephrin type-A receptor 2 (Homo sapiens, UniProt P29317).
Assay [1] has as its target T1, Serine/threonine-protein kinase 4 (Homo sapiens, UniProt Q13043).
T1 sequence (Q13043 whole entry): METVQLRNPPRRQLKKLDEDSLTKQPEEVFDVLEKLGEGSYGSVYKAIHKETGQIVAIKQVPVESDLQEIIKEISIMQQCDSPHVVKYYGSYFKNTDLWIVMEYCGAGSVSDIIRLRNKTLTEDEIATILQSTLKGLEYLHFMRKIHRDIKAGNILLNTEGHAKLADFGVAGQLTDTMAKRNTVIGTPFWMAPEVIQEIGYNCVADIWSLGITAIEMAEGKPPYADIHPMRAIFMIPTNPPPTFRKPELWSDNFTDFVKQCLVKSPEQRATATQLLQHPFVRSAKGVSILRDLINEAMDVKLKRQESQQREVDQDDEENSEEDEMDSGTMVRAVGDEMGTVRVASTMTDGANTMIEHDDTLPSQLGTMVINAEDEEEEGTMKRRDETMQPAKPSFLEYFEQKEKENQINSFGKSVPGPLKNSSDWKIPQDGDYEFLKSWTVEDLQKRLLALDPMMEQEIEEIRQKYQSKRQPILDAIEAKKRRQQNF

Assay [2] has as its target Serine/threonine-protein kinase N2 (Homo sapiens, UniProt Q16513).
The target in assay [3] is Cyclin-dependent kinase 13 (Homo sapiens, UniProt Q14004).
Assay [4] concerns the target Rho-associated protein kinase 1 (Homo sapiens, UniProt Q13464).
Assay [5] concerns the target Serine/threonine-protein kinase PAK 2 (Homo sapiens, UniProt Q13177).
Assay [6] deals with RAC-gamma serine/threonine-protein kinase (Homo sapiens, UniProt Q9Y243).
Assay [7] concerns the target Tyrosine-protein kinase Fyn (Homo sapiens, UniProt P06241).
In assay [8] the target is T2, Serine/threonine-protein kinase Nek9 (Homo sapiens, UniProt Q8TD19).
T2 sequence (Q8TD19 whole entry): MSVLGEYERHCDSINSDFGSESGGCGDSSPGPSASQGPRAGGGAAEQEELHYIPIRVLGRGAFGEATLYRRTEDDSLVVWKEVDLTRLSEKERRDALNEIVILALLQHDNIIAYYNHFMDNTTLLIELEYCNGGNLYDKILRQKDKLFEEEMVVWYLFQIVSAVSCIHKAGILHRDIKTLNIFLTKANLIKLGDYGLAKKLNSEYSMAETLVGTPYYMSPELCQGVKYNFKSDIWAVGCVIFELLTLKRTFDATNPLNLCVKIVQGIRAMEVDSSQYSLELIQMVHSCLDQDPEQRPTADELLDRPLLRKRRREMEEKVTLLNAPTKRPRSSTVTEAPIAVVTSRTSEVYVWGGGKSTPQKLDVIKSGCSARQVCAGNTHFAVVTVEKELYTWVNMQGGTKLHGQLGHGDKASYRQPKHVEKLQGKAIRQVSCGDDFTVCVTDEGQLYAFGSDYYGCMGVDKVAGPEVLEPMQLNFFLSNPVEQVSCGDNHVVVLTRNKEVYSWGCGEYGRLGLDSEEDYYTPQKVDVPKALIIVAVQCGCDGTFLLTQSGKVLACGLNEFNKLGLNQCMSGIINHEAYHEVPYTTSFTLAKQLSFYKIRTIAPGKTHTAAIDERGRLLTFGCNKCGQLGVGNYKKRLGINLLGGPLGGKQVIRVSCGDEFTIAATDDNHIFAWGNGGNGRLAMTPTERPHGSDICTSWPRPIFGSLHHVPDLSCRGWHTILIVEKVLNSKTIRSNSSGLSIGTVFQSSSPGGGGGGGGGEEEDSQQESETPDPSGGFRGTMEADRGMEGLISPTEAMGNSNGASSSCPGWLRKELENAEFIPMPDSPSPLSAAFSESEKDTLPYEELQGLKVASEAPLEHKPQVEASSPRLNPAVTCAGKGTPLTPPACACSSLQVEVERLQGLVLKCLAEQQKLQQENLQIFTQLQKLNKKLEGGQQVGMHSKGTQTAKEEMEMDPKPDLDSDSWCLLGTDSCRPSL

The target of assay [9] is Serine/threonine-protein kinase MRCK alpha (Homo sapiens, UniProt Q5VT25).
Assay [10] concerns the target Ribosomal protein S6 kinase beta-1 (Homo sapiens, UniProt P23443).
Assay [11] deals with Inosine-5'-monophosphate dehydrogenase 2 (Homo sapiens, UniProt P12268).

Where a name gives a salt, the structure may show the parent alone. Active and inactive are the calls of the source. Rule as the data show it, for most assays here: actives have a measured Kd and inactives only a lower limit.

Our source for the Kd values is ChEMBL document CHEMBL3991601, “The target landscape of clinical kinase drugs” (Science, 2017).
Also: in the data inactive means no Kd found up to 30 µM.

Serine/threonine-protein kinase N2, sequence (Q16513 whole entry): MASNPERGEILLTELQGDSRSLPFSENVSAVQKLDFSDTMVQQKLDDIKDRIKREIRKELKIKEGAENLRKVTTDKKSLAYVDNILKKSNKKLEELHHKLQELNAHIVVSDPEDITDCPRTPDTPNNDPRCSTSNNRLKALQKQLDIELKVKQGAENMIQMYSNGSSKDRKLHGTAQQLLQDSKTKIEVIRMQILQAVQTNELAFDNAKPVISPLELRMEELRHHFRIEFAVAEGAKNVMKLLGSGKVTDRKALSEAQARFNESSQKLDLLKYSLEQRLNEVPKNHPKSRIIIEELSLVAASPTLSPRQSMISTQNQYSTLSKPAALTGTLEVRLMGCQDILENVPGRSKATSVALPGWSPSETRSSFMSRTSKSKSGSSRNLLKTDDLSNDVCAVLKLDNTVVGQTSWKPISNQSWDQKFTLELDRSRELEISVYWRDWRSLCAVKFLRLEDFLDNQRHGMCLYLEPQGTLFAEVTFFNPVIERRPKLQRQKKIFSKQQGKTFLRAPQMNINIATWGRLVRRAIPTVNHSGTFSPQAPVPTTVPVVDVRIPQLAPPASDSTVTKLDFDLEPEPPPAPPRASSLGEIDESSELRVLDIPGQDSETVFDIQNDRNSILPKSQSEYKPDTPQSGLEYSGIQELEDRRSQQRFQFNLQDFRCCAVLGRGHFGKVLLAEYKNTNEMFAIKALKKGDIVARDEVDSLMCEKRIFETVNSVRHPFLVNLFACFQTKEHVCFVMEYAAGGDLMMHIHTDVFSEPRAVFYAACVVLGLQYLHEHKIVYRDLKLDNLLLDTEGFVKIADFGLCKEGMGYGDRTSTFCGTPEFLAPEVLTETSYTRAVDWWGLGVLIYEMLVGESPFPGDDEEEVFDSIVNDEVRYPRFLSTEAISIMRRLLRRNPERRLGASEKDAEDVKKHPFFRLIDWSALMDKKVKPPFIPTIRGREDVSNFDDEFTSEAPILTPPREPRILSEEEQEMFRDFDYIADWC
Activated CDC42 kinase 1, sequence (Q07912 whole entry): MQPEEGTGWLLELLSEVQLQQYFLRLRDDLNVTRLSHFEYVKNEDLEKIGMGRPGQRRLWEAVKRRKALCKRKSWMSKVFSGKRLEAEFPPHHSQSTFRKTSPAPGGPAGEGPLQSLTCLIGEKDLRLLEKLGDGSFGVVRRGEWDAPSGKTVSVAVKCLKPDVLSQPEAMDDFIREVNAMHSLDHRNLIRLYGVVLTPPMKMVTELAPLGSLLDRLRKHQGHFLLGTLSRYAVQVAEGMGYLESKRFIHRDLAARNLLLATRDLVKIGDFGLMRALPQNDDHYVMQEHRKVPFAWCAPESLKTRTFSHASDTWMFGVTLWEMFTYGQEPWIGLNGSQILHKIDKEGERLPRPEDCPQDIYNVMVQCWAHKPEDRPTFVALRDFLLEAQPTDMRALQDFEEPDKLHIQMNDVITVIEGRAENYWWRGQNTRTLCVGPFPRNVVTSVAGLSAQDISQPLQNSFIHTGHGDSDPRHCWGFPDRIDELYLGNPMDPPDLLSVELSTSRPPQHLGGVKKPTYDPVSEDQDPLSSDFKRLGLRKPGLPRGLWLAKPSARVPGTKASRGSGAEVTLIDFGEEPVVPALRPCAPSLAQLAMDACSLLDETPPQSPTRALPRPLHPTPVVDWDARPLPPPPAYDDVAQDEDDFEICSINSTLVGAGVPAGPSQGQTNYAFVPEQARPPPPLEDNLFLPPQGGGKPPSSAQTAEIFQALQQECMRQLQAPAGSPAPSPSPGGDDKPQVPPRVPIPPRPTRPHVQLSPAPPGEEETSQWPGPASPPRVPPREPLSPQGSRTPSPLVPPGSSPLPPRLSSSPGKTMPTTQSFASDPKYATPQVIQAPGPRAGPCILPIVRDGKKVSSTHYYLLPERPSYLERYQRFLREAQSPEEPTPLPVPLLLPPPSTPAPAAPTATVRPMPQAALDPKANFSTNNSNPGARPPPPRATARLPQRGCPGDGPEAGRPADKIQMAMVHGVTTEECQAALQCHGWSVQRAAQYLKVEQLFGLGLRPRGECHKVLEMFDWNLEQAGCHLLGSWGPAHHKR
Serine/threonine-protein kinase MRCK alpha, sequence (Q5VT25 whole entry): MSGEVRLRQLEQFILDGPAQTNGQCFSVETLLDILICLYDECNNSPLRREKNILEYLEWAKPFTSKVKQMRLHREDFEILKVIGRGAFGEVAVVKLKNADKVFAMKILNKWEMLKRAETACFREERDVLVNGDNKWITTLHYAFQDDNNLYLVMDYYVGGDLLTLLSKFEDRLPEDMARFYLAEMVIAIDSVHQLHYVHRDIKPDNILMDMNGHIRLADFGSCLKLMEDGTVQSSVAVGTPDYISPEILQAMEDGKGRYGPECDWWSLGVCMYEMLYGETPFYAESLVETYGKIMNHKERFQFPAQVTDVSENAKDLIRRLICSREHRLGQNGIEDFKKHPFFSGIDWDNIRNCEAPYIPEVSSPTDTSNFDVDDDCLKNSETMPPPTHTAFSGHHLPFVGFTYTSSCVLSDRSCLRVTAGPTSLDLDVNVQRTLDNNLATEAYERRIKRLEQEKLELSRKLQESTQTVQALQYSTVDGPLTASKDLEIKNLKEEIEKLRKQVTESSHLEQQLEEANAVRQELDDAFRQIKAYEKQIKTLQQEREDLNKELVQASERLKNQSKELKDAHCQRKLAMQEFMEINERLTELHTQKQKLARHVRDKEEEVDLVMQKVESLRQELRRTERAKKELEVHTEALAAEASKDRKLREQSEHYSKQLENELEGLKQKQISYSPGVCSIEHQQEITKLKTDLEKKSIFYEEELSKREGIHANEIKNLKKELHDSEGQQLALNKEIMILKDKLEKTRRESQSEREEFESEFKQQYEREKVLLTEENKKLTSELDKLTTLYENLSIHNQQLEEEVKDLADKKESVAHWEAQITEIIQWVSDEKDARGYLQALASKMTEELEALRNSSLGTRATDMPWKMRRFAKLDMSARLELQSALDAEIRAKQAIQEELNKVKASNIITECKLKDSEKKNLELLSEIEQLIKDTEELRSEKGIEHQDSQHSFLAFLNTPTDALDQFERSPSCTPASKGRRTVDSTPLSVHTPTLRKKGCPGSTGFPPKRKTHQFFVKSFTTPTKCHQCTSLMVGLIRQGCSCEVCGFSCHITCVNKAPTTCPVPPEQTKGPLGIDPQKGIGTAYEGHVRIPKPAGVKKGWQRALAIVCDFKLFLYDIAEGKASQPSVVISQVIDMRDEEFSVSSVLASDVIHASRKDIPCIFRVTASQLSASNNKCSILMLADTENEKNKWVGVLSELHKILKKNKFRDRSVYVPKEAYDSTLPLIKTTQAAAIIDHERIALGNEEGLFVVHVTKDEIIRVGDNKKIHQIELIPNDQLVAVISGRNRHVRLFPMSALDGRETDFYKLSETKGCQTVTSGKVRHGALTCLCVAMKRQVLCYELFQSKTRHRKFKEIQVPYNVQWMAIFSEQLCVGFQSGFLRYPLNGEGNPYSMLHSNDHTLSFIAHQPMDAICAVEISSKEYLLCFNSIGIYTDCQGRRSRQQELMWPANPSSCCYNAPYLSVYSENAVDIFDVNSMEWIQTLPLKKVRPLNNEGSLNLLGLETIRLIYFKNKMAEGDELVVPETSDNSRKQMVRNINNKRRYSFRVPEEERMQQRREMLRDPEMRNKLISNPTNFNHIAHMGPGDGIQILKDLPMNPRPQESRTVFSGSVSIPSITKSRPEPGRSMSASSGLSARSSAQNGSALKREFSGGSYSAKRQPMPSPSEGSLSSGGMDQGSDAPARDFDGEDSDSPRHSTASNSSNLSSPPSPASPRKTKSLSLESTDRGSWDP
Ribosomal protein S6 kinase beta-1, sequence (P23443 whole entry): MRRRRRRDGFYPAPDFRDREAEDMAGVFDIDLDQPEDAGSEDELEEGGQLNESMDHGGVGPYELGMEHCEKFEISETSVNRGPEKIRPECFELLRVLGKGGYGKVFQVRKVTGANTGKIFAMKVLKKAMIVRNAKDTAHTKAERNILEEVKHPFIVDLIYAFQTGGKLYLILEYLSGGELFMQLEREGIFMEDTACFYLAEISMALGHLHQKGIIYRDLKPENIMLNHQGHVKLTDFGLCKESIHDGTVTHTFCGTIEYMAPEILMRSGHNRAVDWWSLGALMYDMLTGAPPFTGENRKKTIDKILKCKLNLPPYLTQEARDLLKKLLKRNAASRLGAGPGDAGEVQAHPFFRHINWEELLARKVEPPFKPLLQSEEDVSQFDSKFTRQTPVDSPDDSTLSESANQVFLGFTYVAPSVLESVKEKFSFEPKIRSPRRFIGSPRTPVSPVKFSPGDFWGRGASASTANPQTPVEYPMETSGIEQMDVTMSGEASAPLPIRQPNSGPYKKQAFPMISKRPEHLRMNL
RAC-gamma serine/threonine-protein kinase, sequence (Q9Y243 whole entry): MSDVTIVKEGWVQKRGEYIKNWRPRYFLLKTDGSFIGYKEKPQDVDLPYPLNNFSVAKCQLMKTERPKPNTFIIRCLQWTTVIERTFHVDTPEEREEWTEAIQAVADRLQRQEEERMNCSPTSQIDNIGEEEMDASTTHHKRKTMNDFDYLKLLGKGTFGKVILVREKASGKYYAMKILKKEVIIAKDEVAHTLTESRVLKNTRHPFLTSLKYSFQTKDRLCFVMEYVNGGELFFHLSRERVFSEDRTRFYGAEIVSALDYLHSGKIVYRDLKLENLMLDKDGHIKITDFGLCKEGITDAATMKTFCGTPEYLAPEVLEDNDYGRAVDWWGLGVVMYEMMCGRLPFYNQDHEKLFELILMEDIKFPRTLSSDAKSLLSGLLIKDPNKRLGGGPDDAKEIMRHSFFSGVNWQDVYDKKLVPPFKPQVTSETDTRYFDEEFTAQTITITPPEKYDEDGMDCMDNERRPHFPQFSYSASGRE

What is called Kd is the free concentration of one partner at which half of the binding sites on the other are occupied at equilibrium, for simple one-to-one binding. `CC(=O)c1cnc2ccc(-c3cc(Cl)c(O)c(Cl)c3)nc2c1N[C@H]1CC[C@H](CN(C)C)CC1`: the equilibrium dissociation constant (Kd) is 0.067 µM (active) in [1]; > 30 µM (inactive) in assay [2]; > 30 µM (inactive) at Myosin-14; > 30 µM (inactive) in assay [3]; > 30 µM (inactive) in assay [4]; > 30 µM (inactive) in [5]. Moreover, the Kd in assay [6] is > 30 µM (inactive); at Midasin, > 30 µM (inactive); on Activated CDC42 kinase 1, > 30 µM (inactive); in assay [7], 0.125 µM (active); in assay [8], > 30 µM (inactive); at Ephrin type-A receptor 2 it was 0.11 µM (active). Besides, the Kd in assay [9] and in assay [10] was > 30 µM (inactive) throughout.
On to `Nc1ncnc2c1c(-c1cccc(OCc3ccccc3)c1)cn2[C@H]1C[C@@H](CN2CCC2)C1` [AEW-541], for which the Kd is 3.77 µM (active) in assay [1]; > 30 µM (inactive) in assay [2]; > 30 µM (inactive) on Myosin-14; > 30 µM (inactive) in assay [3]; > 30 µM (inactive) in assay [4]; > 30 µM (inactive) in assay [5]. For the same molecule, the Kd (in assay [6]; on Midasin; on Activated CDC42 kinase 1; in [7]; in [8]; on Ephrin type-A receptor 2) was > 30 µM (inactive) in each case. For the same molecule, the Kd in assay [9] and in [10] was > 30 µM (inactive) in each case.
In the case of `Cc1csc(-c2nnc(Nc3ccc(Oc4ncccc4-c4ccnc(N)n4)cc3)c3ccccc23)c1` [AMG-900], the Kd was > 30 µM (inactive) in assay [1]; > 30 µM (inactive) in assay [2]; > 30 µM (inactive) on Myosin-14; 2.51 µM in assay [3]; > 30 µM (inactive) in assay [4]; > 30 µM (inactive) in assay [11]. The Kd (in assay [5]; in assay [6]; at Activated CDC42 kinase 1; in assay [7]; in [8]; at Ephrin type-A receptor 2) was > 30 µM (inactive) each time. Also, the Kd in assay [9] and in assay [10] was > 30 µM (inactive) throughout.
`C=CC(=O)Nc1cc2c(Nc3ccc(F)c(Cl)c3)ncnc2cc1C#CC(C)(C)N1CCN(C)CC1` [AV-412 FREE BASE]: the Kd in [1], in [2], in assay [3], in assay [4], in assay [11] and in assay [5] was > 30 µM (inactive) in each case. The Kd (in [6]; on Midasin; at Activated CDC42 kinase 1; in [7]; in [8]; on Ephrin type-A receptor 2) was > 30 µM (inactive) in each case. Besides, the Kd in [9] and in assay [10] was > 30 µM (inactive) each time.
On to `COc1cc([C@@H]2c3cc4c(cc3[C@H](O)[C@H]3COC(=O)[C@@H]23)OCO4)cc(OC)c1OC` [AXL-1717], for which the Kd (in assay [1]; in [2]; at Myosin-14; in [4]; in assay [11]; in assay [5]) was > 30 µM (inactive) each time. The Kd (in assay [6]; at Midasin; at Activated CDC42 kinase 1; in assay [7]; in [8]; at Ephrin type-A receptor 2) was > 30 µM (inactive) in each case. The Kd in assay [9] and in assay [10] was > 30 µM (inactive) each time.
In the case of `Cc1cc(Nc2ncc(Cl)c(Nc3ccccc3S(=O)(=O)C(C)C)n2)c(OC(C)C)cc1C1CCNCC1` [CERITINIB], the Kd (in assay [1]; in assay [2]; on Myosin-14; in assay [3]; in assay [4]; in assay [5]) was > 30 µM (inactive) each time. The Kd in assay [6] is > 30 µM (inactive); on Midasin it was > 30 µM (inactive); at Activated CDC42 kinase 1 it was 0.929 µM (active); in assay [7] it was > 30 µM (inactive); in assay [8], > 30 µM (inactive); at Ephrin type-A receptor 2, > 30 µM (inactive). For the same molecule, the Kd in assay [9] and in [10] was > 30 µM (inactive) in each case.
As to `CCS(=O)(=O)N1CCN(c2ccc(Nc3ncc(C(N)=O)c(NC4CC4)n3)cc2)CC1` [Cerdulatinib Hydrochloride], the equilibrium dissociation constant (Kd) in [1] was 0.102 µM (active); in [2], > 30 µM (inactive); in [3] it was > 30 µM (inactive); in [4], > 30 µM (inactive); in assay [11], > 30 µM (inactive); in assay [5], > 30 µM (inactive). For the same molecule, the Kd (in [6]; at Midasin; on Activated CDC42 kinase 1; in [7]; in [8]; at Ephrin type-A receptor 2) was > 30 µM (inactive) in each case. Besides, the Kd in assay [9] and in assay [10] was > 30 µM (inactive) each time.
On to `CNC(=O)c1nn(C)c2c1C(C)(C)Cc1cnc(Nc3ccc(N4CCN(C)CC4)cc3)nc1-2` [MILCICLIB], for which the Kd (in [1]; in assay [2]; at Myosin-14; in assay [3]; in assay [4]; in [5]) was > 30 µM (inactive) throughout. The Kd in assay [6] was > 30 µM (inactive); at Midasin it was > 30 µM (inactive); at Activated CDC42 kinase 1, 0.9 µM (active); in assay [7], 1.44 µM (active); in assay [8] it was 19.6 µM (active); at Ephrin type-A receptor 2, 0.661 µM (active). The Kd in [9] and in assay [10] was > 30 µM (inactive) in each case.
Regarding `FC(F)(F)c1ccc(/C=C/c2nc(COc3ccc(CCCCn4ccnn4)cc3)co2)cc1` [MUBRITINIB], the Kd (in [1]; in [2]; at Myosin-14; in [3]; in [4]; in [5]) was > 30 µM (inactive) each time. The Kd (in assay [6]; on Midasin; at Activated CDC42 kinase 1; in [7]; in [8]; on Ephrin type-A receptor 2) was > 30 µM (inactive) throughout. Moreover, the Kd in [9] and in assay [10] was > 30 µM (inactive) throughout.
